Source: patent US20250186627A1, “RADIOLABELED COMPOUNDS TARGETING THE PROSTATE-SPECIFIC MEMBRANE ANTIGEN” (PROVINCIAL HEALTH SERVICES AUTHORITY, priority 2022, published 2025)
One block for each molecule: values may come before it. *1 amine or outer side, *2 acyl side, *3 side chain or, on linkers, in order; H or OH if unused. Where a SMILES comes first, the peptide text is derived from it. [ ]: non-standard residue; d: D form. The star is where a group is joined. ξ: configuration not given here. DOTA = O=C(O)CN1CCN(CC(=O)O)CCN(CC(=O)*)CCN(CC(=O)O)CC1; Butanoyl(4-(4-MeO-phenyl)) = COc1ccc(CCCC(=O)*)cc1; ξAla(9-anthryl) = NC(Cc1c2ccccc2cc2ccccc12)C(=O)O; X2 = O=C(NC(CCCCN*)C(=O)O)NC(CC(F)C(=O)O)C(=O)O; X1 = O=C(C1CCC(CN[*:1])CC1)[*:2]; ξK = NCCCCC(N)C(=O)O

Test system: NRG-mice bearing LNCaP tumors
Assay: Biodistribution (and PET/SPECT imaging) in NRG-mice bearing LNCaP tumors
Format: in vivo
Conditions: Avg
Experimental: LNCaP cell line was obtained from ATCC (LNCaP clone FGC, CRL-1740). It was established from a metastatic site of left supraclavicular lymph node of human prostatic adenocarcinoma. Cells were cultured in PRMI 1640 medium supplemented with 10% FBS, penicillin (100 U/mL) and streptomycin (100 μg/mL) at 37° C. in a humidified incubator containing 5% CO2. Cells grown to 80-90% confluence were then washed with sterile phosphate-buffered saline (1×PBS pH 7.4) and trypsinization. The collected cells number was counted with a Hausser Scientific (Horsham, PA) Hemacytometer. Approximately 10 million LNCaP cells were inoculated into the left dorsal flank of immunocomprised NRG mice. The tumours were allowed to grow for 4-6 weeks and used for imaging and biodistribution studies when a volume of 200-600 mm^3 was reached.
PET imaging experiments were conducted using Siemens Inveon micro PET/CT scanner. SPECT imaging experiments were conducted using an MILabs micro SPECT/CT scanner. Each tumor bearing mouse was injected 4-6 MBq of ^68Ga or 18.5 MBq of ^177Lu labeled tracer through the tail vein under anesthesia (2% isoflurane in oxygen). The mice were allowed to recover and roam freely in their cage. At pre-defined time point, the mice were sedated again with 2% isoflurane in oxygen inhalation and positioned in the scanner. A 10-min CT scan was conducted first for localization and attenuation correction after segmentation for reconstructing the PET or SPECT images. Then, a 10-min static PET imaging or a one hour (30 min×2 frames) of static SPECT scan was performed to determined uptake in tumor and other organs. The mice were kept warm by a heating pad during acquisition.
For biodistribution studies, the mice were injected with the radiotracer as described above. The mice were anesthetized with 2% isoflurane inhalation, and euthanized by CO2 inhalation. Blood was withdrawn immediately from the heart, and the organs/tissues of interest were collected. The collected organs/tissues were weighed and counted using a Perkin Elmer (Waltham, MA) Wizard2 2480 gamma counter. The uptake in each organ/tissue was normalized to the injected dose (radioactivity) using a standard curve, and expressed as the percentage of the injected dose per gram of tissue (% ID/g).

Biodistribution: Adrenal gland (4 h p.i.): 5.91 % ID/g
Biodistribution: Blood (4 h p.i.): 24.97 % ID/g
Biodistribution: Bone (4 h p.i.): 1.49 % ID/g
Biodistribution: Brain (4 h p.i.): 0.47 % ID/g
Biodistribution: Fat (4 h p.i.): 2.63 % ID/g
Biodistribution: Heart (4 h p.i.): 5.42 % ID/g
Biodistribution: Intestine (4 h p.i.): 1.87 % ID/g
Biodistribution: LNCaP tumor (4 h p.i.): 21.30 % ID/g
Biodistribution: Lacrimal gland (4 h p.i.): 1.44 % ID/g
Biodistribution: Liver (4 h p.i.): 4.26 % ID/g
Biodistribution: Lungs (4 h p.i.): 10.19 % ID/g
Biodistribution: Muscle (4 h p.i.): 1.75 % ID/g
Biodistribution: Pancreas (4 h p.i.): 2.20 % ID/g
Biodistribution: Salivary gland (4 h p.i.): 4.23 % ID/g
Biodistribution: Seminal gland (4 h p.i.): 1.53 % ID/g
Biodistribution: Spleen (4 h p.i.): 2.15 % ID/g
Biodistribution: Stomach (4 h p.i.): 1.11 % ID/g
Biodistribution: Testes (4 h p.i.): 3.83 % ID/g
Biodistribution: Thyroid (4 h p.i.): 4.29 % ID/g
Biodistribution: Urine (4 h p.i.): 76.61 % ID/g
Biodistribution: kidney (4 h p.i.): 10.56 % ID/g
Biodistribution: Adrenal gland (24 h p.i.): 2.39 % ID/g
Biodistribution: Blood (24 h p.i.): 4.37 % ID/g
Biodistribution: Bone (24 h p.i.): 0.36 % ID/g
Biodistribution: Brain (24 h p.i.): 0.09 % ID/g
Biodistribution: Fat (24 h p.i.): 0.71 % ID/g
Biodistribution: Heart (24 h p.i.): 1.27 % ID/g
Biodistribution: Intestine (24 h p.i.): 0.59 % ID/g
Biodistribution: LNCaP tumor (24 h p.i.): 38.57 % ID/g
Biodistribution: Lacrimal gland (24 h p.i.): 0.12 % ID/g
Biodistribution: Liver (24 h p.i.): 1.16 % ID/g
Biodistribution: Lungs (24 h p.i.): 2.49 % ID/g
Biodistribution: Muscle (24 h p.i.): 0.40 % ID/g
Biodistribution: Pancreas (24 h p.i.): 0.62 % ID/g
Biodistribution: Salivary gland (24 h p.i.): 1.38 % ID/g
Biodistribution: Seminal gland (24 h p.i.): 0.38 % ID/g
Biodistribution: Spleen (24 h p.i.): 0.86 % ID/g
Biodistribution: Stomach (24 h p.i.): 0.48 % ID/g
Biodistribution: Testes (24 h p.i.): 1.86 % ID/g
Biodistribution: Thyroid (24 h p.i.): 1.54 % ID/g
Biodistribution: Urine (24 h p.i.): 28.57 % ID/g
Biodistribution: kidney (24 h p.i.): 7.55 % ID/g
Biodistribution: Adrenal gland (72 h p.i.): 2.59 % ID/g
Biodistribution: Blood (72 h p.i.): 0.42 % ID/g
Biodistribution: Bone (72 h p.i.): 0.26 % ID/g
Biodistribution: Brain (72 h p.i.): 0.03 % ID/g
Biodistribution: Fat (72 h p.i.): 0.39 % ID/g
Biodistribution: Heart (72 h p.i.): 0.37 % ID/g
Biodistribution: Intestine (72 h p.i.): 0.15 % ID/g
Biodistribution: LNCaP tumor (72 h p.i.): 38.46 % ID/g
Biodistribution: Lacrimal gland (72 h p.i.): 0.07 % ID/g
Biodistribution: Liver (72 h p.i.): 0.47 % ID/g
Biodistribution: Lungs (72 h p.i.): 0.69 % ID/g
Biodistribution: Muscle (72 h p.i.): 0.11 % ID/g
Biodistribution: Pancreas (72 h p.i.): 0.17 % ID/g
Biodistribution: Salivary gland (72 h p.i.): 0.55 % ID/g
Biodistribution: Seminal gland (72 h p.i.): 0.15 % ID/g
Biodistribution: Spleen (72 h p.i.): 0.83 % ID/g
Biodistribution: Stomach (72 h p.i.): 0.18 % ID/g
Biodistribution: Testes (72 h p.i.): 0.92 % ID/g
Biodistribution: Thyroid (72 h p.i.): 0.65 % ID/g
Biodistribution: Urine (72 h p.i.): 4.51 % ID/g
Biodistribution: kidney (72 h p.i.): 3.53 % ID/g
Biodistribution: Adrenal gland (120 h p.i.): 1.39 % ID/g
Biodistribution: Blood (120 h p.i.): 0.14 % ID/g
Biodistribution: Bone (120 h p.i.): 0.14 % ID/g
Biodistribution: Brain (120 h p.i.): 0.02 % ID/g
Biodistribution: Fat (120 h p.i.): 0.22 % ID/g
Biodistribution: Heart (120 h p.i.): 0.22 % ID/g
Biodistribution: Intestine (120 h p.i.): 0.14 % ID/g
Biodistribution: LNCaP tumor (120 h p.i.): 45.01 % ID/g
Biodistribution: Lacrimal gland (120 h p.i.): 0.12 % ID/g
Biodistribution: Liver (120 h p.i.): 0.30 % ID/g
Biodistribution: Lungs (120 h p.i.): 0.30 % ID/g
Biodistribution: Muscle (120 h p.i.): 0.09 % ID/g
Biodistribution: Pancreas (120 h p.i.): 0.11 % ID/g
Biodistribution: Salivary gland (120 h p.i.): 0.34 % ID/g
Biodistribution: Seminal gland (120 h p.i.): 0.27 % ID/g
Biodistribution: Spleen (120 h p.i.): 1.45 % ID/g
Biodistribution: Stomach (120 h p.i.): 0.37 % ID/g
Biodistribution: Testes (120 h p.i.): 0.67 % ID/g
Biodistribution: Thyroid (120 h p.i.): 0.39 % ID/g
Biodistribution: Urine (120 h p.i.): 3.80 % ID/g
Biodistribution: kidney (120 h p.i.): 2.04 % ID/g
SMILES: COc1ccc(CCCC(=O)NCC(=O)NC(CCCCNC(=O)CN2CCN(CC(=O)[O-])CCN(CC(=O)[O-])CCN(CC(=O)[O-])CC2)C(=O)NCC(=O)NCC2CCC(C(=O)NC(Cc3c4ccccc4cc4ccccc34)C(=O)NCCCCC(NC(=O)NC(CC(F)C(=O)O)C(=O)O)C(=O)O)CC2)cc1.[177Lu+3] (centres unmarked) [^177Lu-CCZ02008] ({Butanoyl(4-(4-MeO-phenyl))}-G[ξK](DOTA)G[X1][ξAla(9-anthryl)]-X2)

Biodistribution: Blood (24 h p.i.): 0.73 % ID/g
Biodistribution: Bone (24 h p.i.): 0.18 % ID/g
Biodistribution: Intestine (24 h p.i.): 0.18 % ID/g
Biodistribution: LNCaP tumor (24 h p.i.): 42.96 % ID/g
Biodistribution: Liver (24 h p.i.): 0.49 % ID/g
Biodistribution: Muscle (24 h p.i.): 0.10 % ID/g
Biodistribution: Salivary gland (24 h p.i.): 0.35 % ID/g
Biodistribution: Spleen (24 h p.i.): 0.33 % ID/g
Biodistribution: Urine (24 h p.i.): 19.02 % ID/g
Biodistribution: kidney (24 h p.i.): 6.06 % ID/g
Biodistribution: Blood (72 h p.i.): 0.07 % ID/g
Biodistribution: Bone (72 h p.i.): 0.19 % ID/g
Biodistribution: Intestine (72 h p.i.): 0.08 % ID/g
Biodistribution: LNCaP tumor (72 h p.i.): 56.98 % ID/g
Biodistribution: Liver (72 h p.i.): 0.27 % ID/g
Biodistribution: Muscle (72 h p.i.): 0.15 % ID/g
Biodistribution: Salivary gland (72 h p.i.): 0.31 % ID/g
Biodistribution: Spleen (72 h p.i.): 0.36 % ID/g
Biodistribution: Urine (72 h p.i.): 4.96 % ID/g
Biodistribution: kidney (72 h p.i.): 4.30 % ID/g
SMILES: COc1ccc(CCCC(=O)NCC(=O)NC(CCCCNC(=O)CN2CCN(CC(=O)[O-])CCN(CC(=O)[O-])CCN(CC(=O)[O-])CC2)C(=O)NCC2CCC(C(=O)NC(Cc3c4ccccc4cc4ccccc34)C(=O)NCCCCC(NC(=O)NC(CCCC(=O)O)C(=O)O)C(=O)O)CC2)cc1.[177Lu+3] (centres unmarked) [^177Lu-HTK03170, reference compound]
